For assay [1], the system named is A549 human lung adenocarcinoma. The assay can be described thus: MTT assay, A549. The assay is classed as cell-based. The following applies: 72 hours, read-out: IC50 (concentration required to reduce cell viability by 50%). The text has this: (§1) A panel of five human malignant mesothelioma cell lines, established from the pleural fluid of patients with the disease. These cell lines, designed Ju77, Lo68, No36, One58 and Sty51 have been previously described (1). None of the patients from whom the cell lines were derived had been exposed to chemotherapeutic agents. Two cell lines were purchased from ATCC (Rockville, Md.) for use as controls: HT29—a human colon adenocarcinoma (ATCC HTB38) and A549—a human lung adenocarcinoma (ATCC CCL185). These cell lines are representative of tumours that are generally drug resistant but have shown some responses to newer chemotherapy agents.
(§2) Cells were maintained in RPMI-1640 containing 5% fetal calf serum (Life Technologies Inc., Melbourne), 5×10^−5 M 2-mercaptoethanol, 20 mM HEPES buffer, 100 IU benzylpenicillin/ml (CSL, Perth) and 50 μg gentamicin/ml (David Bull Laboratories, Melbourne), in water saturated air containing 5% CO2 at 37° C. This growth medium will henceforth be called RF-5. All cells were checked at 3 monthly intervals for Mycoplasma and remained negative to testing.
(§3) Drug sensitivities for each cell line were determined by use of the MTT (Sigma-Aldrich, NSW) assay modified from the method described by Mossman (2). […] Optical densities were determined using a SpectraMax 250 plate reader (Molecular Devices) at 570 nm. […]

The test system of assay [2] is mesothelioma and control cells. The assay can be described thus: MTT assay, drug toxicity in mesothelioma and control cells. In kind it is cell-based, human. The following applies: all cell lines.
Excerpt: as §1, §2, §3

The test system of assay [3] is IL-6. The assay can be described thus: IL-6 ELISA of media from treated mesothelioma and control cells. The assay is classed as cell-based, human. The following applies: for surge in IL-6 production: as the concentration of drug approached its IC50 value. How it is done: The IL-6 assay was performed using a human IL-6 ELISA kit (eBioscience, USA) according to the manufacturers protocol. Briefly ninety six well plates were incubated at room temperature overnight with 100 μL per well of monoclonal antihuman IL-6 antibody in coating buffer (0.1M Na2CO3/NaHCO3, pH 9.6). The plate was washed five times with PBS and then 200 μL of blocking buffer added to each well and incubated for one hour at room temperature. The plate was then washed five times in PBS with 0.005% Tween 20 (Sigma-Aldrich, NSW). 100 μL of each sample to be assayed was added to each well and also IL-6 standard solutions ranging from 0.6-400 pg/ml were used to generate a standard curve.
After a one hour incubation, the plate was washed as above and 100 μL of biotinylated-IL-6 antibody solution added for a further hour. Following further washes, 100 μL of streptavidin-HRP conjugate solution was added for 30 minutes and the plates washed. 100 μL of ABTS solution was added and following incubation for 30 minutes at 37° C., the plate was read at 405 nm on a SpectraMax 250 plate reader (Molecular Devices) and the concentration of IL-6 for each sample calculated from the standard curve.
Samples for use in the ELISA were prepared by seeding of cells in 96 well plates with or without chemotherapy as described previously. As in the previous experiments chemotherapy was added 24 hours after cell seeding. For cell lysis experiments 300 μl of distilled water was added to each well and lysis of cells was confirmed by visual inspection. Media from these assays was removed at the appropriate time and stored at −20° C. until the ELISA was performed. The concentration of IL-6 for each cell line represents the mean value generated from three separate experiments. The results from chemotherapy effects on IL-6 production are representative of two or more experiments.
(ELISA stands for enzyme-linked immunosorbent assay.)

Assay [4] concerns five human malignant mesothelioma cell lines (Ju77, Lo68, No36, One58, Sty51). As to the kind of experiment: MTT assay, five mesothelioma cell lines. The following applies: range over five mesothelioma cell lines, 72 hours, read-out: IC50 (concentration required to reduce cell viability by 50%). The assay is classed as cell-based.
Excerpt: as §1, §2, §3
For orientation: Tetrazolium dyes change colour on reduction, which living cells bring about.

Assay [5] deals with HT29 human colon adenocarcinoma. The assay can be described thus: MTT assay, HT29. In kind it is cell-based. The following applies: HT-29, 72 hours, read-out: IC50 (concentration required to reduce cell viability by 50%).
Excerpt: as §1, §2, §3

Assay [6] relates to IL-6. The following applies: mesothelioma cells, concentrations producing a 5-30% reduction in relative cell growth; reference 3; cited from earlier work.
Assay [7] relates to NO36 mesothelioma cell line. The assay can be described thus: MTT assay, NO36. In kind it is cell-based, human.
Excerpt: as §1, §2, §3

Converted amounts (≈) assume the structure as drawn.

Regarding `CC(=O)O[C@@]12CO[C@@H]1C[C@H](O)[C@@]1(C)C(=O)[C@H](O)C3=C(C)[C@@H](OC(=O)[C@H](O)[C@@H](NC(=O)OC(C)(C)C)c4ccccc4)C[C@@](O)([C@@H](OC(=O)c4ccccc4)[C@H]21)C3(C)C` [docetaxel, Docetaxel], the values for the IC50 in assay [1], in assay [4] and in assay [5] were 5.4 ng/mL (≈ 6.68 nM), 4.7 to 7.6 ng/mL (≈ 5.82 to 9.41 nM) and 2 ng/mL (≈ 2.48 nM), respectively. Also, the “shape of dose response curve” value in assay [2] is “plateau effect is clear for all cell lines”. Further, the “surge in IL-6 production” value in the assay on IL-6 [3] is reported as “a surge in IL-6 production was measured”. Besides, the “IL-6 production compared to untreated cells” value in the assay on IL-6 [3] (concentrations below the IC50) is reported as “did not effect IL-6 production”.
With `Nc1ccn([C@@H]2O[C@H](CO)[C@@H](O)C2(F)F)c(=O)n1` [gemcitabine], in the assay with IL-6 [6], the “change in IL-6 concentration relative to untreated cells” value is “decrease in the IL-6 concentration by up to one half”. Also, the IC50 is 1.75 ng/mL (≈ 6.65 nM) in assay [1], 0.8 to 5 ng/mL (≈ 3.04 to 19 nM) in assay [4] and 6.7 ng/mL (≈ 25.5 nM) in assay [5]. Also, the “surge in IL-6 production” value with IL-6 [3] is reported as “a surge in IL-6 production was measured”. The compound further registered a viability at 0.01 µg/mL in assay [7] (Homo sapiens, NO36 cells at 10 ng/ml) of 50%. Also, the “concentration at which cell death reaches a plateau” value in assay [7] (NO36 cells, MTT) is “approximately 3 ng/ml”.

A word on the viability: it is a per cent measure of how many cells are alive, often set against a control. A lower viability goes with a greater loss of cells.

The values above are taken from patent US20050090453A1, “Methods of modulating IL-6” (SOLBEC PHARMACEUTICALS CO., LTD., priority 2003, published 2005).
